Results published in ChEMBL document CHEMBL4507291 (2021).

Experiments:
[1] = biological target: T1, 5-hydroxytryptamine receptor 3A (Homo sapiens) (UniProt P46098); settings: Compound concentration 10.0 uM
T1 sequence (whole entry): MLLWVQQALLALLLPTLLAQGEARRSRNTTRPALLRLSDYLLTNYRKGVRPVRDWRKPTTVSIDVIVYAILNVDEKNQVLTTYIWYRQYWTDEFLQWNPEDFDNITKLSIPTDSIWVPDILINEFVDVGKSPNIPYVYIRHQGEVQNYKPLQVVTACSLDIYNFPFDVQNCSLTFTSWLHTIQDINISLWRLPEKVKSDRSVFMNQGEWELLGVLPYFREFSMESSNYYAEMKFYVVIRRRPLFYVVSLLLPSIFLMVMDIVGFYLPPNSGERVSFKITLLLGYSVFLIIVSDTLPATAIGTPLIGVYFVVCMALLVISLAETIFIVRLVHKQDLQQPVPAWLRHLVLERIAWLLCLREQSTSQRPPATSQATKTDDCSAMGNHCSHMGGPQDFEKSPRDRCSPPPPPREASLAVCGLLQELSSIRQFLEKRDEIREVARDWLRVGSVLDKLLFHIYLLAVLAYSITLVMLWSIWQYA

[2] = tested on: Epidermal growth factor receptor (Homo sapiens), P00533 [T790M]
[3] = biological target: T2, NUAK family SNF1-like kinase 1 (Homo sapiens) (UniProt O60285)
T2 sequence (whole entry): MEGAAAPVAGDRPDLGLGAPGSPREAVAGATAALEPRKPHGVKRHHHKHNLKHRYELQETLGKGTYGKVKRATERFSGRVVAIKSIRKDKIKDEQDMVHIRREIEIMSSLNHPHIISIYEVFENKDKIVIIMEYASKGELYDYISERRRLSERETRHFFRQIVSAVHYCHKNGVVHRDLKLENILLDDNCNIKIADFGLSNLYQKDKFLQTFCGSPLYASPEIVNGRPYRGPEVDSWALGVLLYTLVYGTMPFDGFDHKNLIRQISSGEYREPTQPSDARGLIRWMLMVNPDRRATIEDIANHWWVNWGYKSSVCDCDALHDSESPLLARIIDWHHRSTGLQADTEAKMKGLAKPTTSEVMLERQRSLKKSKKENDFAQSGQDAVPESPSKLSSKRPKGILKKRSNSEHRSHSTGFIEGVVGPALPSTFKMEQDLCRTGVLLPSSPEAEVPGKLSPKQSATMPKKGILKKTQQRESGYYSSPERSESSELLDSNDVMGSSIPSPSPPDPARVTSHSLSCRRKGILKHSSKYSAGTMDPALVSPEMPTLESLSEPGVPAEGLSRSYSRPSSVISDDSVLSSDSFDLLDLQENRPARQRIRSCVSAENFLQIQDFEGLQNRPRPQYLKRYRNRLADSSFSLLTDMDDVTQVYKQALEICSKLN

[4] = biological target: Serine/threonine-protein kinase Nek10 (Homo sapiens) (UniProt Q6ZWH5)
[5] = biological target: Dual specificity tyrosine-phosphorylation-regulated kinase 1B (Homo sapiens) (UniProt Q9Y463)
[6] = biological target: T3, Serine/threonine-protein kinase 4 (Homo sapiens) (UniProt Q13043)
T3 sequence (whole entry): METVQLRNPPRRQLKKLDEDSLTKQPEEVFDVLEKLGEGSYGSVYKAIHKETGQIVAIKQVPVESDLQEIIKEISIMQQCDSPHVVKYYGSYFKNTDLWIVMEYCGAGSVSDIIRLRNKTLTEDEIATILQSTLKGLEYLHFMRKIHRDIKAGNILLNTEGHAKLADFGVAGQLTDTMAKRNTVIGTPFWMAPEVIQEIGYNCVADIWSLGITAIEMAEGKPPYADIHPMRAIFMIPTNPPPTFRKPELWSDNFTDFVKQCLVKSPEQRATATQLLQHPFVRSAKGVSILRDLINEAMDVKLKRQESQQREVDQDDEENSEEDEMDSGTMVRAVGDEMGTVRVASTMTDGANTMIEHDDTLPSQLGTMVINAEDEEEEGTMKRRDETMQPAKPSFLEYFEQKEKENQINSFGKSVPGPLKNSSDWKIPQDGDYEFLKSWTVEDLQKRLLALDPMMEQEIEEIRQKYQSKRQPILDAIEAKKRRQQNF

[7] = tested on: Mast/stem cell growth factor receptor Kit (Homo sapiens), P10721 [V559D,T670I]
[8] = biological target: Calcium/calmodulin-dependent protein kinase kinase 2 (Homo sapiens) (UniProt Q96RR4)
[9] = biological target: Mitogen-activated protein kinase kinase kinase kinase 5 (Homo sapiens) (UniProt Q9Y4K4)
[10] = tested on: Mast/stem cell growth factor receptor Kit (Homo sapiens), P10721 [L576P]
[11] = biological target: Protein-tyrosine kinase 2-beta (Homo sapiens) (UniProt Q14289)
[12] = tested on: Proto-oncogene tyrosine-protein kinase receptor Ret (Homo sapiens), P07949 [V804M]
[13] = biological target: Serine/threonine-protein kinase Nek11 (Homo sapiens) (UniProt Q8NG66)
[14] = biological target: Membrane-associated tyrosine- and threonine-specific cdc2-inhibitory kinase (Homo sapiens) (UniProt Q99640)
[15] = biological target: BDNF/NT-3 growth factors receptor (Homo sapiens) (UniProt Q16620)
[16] = tested on: Hepatocyte growth factor receptor (Homo sapiens), P08581 [M1250T]
[17] = Compound concentration 100.0 nM
[18] = Compound concentration 1000.0 nM

Protein-tyrosine kinase 2-beta (Homo sapiens), sequence (Q14289 whole entry, looked up): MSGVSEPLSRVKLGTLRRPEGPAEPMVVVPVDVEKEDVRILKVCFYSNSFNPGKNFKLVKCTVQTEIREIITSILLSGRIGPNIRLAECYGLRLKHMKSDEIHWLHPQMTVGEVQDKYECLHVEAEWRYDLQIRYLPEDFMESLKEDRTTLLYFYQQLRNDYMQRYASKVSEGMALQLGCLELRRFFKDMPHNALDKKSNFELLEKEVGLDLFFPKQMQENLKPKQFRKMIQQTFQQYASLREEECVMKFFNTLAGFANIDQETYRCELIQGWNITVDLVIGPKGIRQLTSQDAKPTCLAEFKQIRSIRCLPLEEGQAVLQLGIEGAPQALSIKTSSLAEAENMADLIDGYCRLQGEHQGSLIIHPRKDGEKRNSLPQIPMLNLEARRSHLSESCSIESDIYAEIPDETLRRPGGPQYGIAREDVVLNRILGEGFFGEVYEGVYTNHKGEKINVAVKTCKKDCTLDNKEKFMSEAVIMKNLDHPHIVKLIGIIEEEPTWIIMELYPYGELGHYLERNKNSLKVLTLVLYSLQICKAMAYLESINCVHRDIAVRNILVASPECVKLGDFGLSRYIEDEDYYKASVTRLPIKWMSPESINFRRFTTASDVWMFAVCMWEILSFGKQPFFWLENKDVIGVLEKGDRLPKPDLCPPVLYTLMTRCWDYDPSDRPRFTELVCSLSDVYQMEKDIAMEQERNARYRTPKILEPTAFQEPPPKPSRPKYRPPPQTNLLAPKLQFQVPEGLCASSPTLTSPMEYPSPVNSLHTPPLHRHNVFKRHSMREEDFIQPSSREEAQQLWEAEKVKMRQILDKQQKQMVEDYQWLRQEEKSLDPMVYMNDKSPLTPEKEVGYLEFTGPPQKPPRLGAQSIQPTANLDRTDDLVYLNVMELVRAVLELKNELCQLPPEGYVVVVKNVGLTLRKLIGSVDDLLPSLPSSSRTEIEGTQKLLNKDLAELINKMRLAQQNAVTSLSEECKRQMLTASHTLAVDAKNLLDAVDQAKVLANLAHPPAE
Dual specificity tyrosine-phosphorylation-regulated kinase 1B (Homo sapiens), sequence (Q9Y463 whole entry, looked up): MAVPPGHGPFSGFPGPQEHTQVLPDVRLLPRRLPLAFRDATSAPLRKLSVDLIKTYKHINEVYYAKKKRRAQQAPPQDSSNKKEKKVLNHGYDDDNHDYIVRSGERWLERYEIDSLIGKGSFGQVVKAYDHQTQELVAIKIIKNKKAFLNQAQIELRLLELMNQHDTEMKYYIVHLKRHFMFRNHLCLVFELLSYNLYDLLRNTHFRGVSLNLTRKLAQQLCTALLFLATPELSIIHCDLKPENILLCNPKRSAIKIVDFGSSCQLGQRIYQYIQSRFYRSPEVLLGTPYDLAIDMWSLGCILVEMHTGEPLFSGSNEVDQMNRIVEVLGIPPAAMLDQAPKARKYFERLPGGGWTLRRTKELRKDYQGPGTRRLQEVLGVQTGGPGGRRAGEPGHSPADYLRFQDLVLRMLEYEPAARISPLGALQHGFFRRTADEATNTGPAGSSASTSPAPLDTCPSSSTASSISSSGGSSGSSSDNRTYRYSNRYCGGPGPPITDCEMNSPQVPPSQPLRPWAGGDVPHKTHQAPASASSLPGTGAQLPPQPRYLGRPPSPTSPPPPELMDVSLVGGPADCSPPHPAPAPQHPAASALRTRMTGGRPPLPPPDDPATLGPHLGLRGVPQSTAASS
Calcium/calmodulin-dependent protein kinase kinase 2 (Homo sapiens), sequence (Q96RR4 2-588 limits assumed): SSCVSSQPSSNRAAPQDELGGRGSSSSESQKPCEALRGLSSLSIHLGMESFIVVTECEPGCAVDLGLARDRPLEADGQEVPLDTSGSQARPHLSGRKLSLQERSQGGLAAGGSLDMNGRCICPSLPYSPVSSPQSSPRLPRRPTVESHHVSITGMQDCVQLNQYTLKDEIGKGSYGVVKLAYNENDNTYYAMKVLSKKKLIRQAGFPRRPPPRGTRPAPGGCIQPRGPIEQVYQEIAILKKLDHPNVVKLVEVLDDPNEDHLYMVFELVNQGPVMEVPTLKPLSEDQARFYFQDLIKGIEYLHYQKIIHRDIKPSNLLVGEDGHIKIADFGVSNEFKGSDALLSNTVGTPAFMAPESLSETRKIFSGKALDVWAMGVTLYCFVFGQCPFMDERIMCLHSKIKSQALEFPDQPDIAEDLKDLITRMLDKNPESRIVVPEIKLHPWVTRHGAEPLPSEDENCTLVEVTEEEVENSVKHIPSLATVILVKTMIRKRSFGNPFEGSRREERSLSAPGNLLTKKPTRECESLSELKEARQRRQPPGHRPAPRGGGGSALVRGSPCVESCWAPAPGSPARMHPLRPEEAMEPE
Serine/threonine-protein kinase Nek10 (Homo sapiens), sequence (Q6ZWH5 whole entry): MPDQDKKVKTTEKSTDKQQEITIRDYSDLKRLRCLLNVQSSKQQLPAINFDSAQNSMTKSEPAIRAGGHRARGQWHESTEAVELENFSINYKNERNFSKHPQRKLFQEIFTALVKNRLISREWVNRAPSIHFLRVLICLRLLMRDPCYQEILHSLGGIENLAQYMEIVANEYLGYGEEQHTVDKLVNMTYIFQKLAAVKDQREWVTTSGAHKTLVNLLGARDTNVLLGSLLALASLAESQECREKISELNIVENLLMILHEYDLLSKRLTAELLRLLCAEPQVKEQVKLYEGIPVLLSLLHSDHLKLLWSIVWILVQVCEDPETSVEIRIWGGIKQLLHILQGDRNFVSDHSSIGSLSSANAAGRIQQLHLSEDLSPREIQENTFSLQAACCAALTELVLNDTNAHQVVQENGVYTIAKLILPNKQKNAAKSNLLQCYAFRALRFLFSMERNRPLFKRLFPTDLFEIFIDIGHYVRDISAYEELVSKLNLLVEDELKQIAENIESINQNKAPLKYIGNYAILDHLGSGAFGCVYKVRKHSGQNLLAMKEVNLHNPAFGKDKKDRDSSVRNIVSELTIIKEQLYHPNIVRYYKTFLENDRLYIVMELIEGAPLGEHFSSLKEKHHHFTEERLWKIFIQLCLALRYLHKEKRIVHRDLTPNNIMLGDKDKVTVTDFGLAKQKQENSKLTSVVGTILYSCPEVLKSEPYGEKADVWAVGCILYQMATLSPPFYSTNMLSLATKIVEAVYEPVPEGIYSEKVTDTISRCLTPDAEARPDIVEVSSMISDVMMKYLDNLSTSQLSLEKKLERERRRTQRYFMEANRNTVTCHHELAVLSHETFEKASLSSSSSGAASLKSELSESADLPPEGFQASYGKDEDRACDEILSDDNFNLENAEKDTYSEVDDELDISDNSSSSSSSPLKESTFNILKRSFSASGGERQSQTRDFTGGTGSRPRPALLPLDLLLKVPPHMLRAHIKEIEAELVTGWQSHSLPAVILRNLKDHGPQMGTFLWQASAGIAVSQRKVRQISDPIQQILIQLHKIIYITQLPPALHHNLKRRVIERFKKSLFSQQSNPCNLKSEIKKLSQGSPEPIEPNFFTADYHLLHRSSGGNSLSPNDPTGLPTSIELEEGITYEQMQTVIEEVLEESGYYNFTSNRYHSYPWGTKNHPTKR
Mitogen-activated protein kinase kinase kinase kinase 5 (Homo sapiens), sequence (Q9Y4K4 whole entry, looked up): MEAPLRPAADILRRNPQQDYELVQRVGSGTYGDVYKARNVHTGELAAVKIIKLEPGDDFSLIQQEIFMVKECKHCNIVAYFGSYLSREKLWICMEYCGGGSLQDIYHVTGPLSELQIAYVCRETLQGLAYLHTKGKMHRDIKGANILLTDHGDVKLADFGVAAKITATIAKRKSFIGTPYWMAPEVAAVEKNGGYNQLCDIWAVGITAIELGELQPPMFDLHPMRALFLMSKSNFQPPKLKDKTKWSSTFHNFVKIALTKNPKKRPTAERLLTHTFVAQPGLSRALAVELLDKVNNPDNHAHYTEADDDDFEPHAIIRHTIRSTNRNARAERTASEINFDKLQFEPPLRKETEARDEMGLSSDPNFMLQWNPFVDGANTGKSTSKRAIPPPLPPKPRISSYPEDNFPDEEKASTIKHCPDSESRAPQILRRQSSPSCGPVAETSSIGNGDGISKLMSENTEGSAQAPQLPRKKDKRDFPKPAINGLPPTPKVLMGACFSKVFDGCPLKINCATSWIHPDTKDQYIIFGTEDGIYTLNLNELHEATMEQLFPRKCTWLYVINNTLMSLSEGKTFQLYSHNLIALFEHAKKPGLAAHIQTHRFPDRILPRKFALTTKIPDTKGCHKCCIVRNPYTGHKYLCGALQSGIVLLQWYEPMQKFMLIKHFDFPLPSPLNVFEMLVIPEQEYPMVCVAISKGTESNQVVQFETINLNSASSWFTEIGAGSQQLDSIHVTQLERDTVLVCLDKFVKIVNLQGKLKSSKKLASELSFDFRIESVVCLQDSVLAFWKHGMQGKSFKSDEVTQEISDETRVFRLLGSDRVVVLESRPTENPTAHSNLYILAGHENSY
BDNF/NT-3 growth factors receptor (Homo sapiens), sequence (Q16620 32-822 limits assumed): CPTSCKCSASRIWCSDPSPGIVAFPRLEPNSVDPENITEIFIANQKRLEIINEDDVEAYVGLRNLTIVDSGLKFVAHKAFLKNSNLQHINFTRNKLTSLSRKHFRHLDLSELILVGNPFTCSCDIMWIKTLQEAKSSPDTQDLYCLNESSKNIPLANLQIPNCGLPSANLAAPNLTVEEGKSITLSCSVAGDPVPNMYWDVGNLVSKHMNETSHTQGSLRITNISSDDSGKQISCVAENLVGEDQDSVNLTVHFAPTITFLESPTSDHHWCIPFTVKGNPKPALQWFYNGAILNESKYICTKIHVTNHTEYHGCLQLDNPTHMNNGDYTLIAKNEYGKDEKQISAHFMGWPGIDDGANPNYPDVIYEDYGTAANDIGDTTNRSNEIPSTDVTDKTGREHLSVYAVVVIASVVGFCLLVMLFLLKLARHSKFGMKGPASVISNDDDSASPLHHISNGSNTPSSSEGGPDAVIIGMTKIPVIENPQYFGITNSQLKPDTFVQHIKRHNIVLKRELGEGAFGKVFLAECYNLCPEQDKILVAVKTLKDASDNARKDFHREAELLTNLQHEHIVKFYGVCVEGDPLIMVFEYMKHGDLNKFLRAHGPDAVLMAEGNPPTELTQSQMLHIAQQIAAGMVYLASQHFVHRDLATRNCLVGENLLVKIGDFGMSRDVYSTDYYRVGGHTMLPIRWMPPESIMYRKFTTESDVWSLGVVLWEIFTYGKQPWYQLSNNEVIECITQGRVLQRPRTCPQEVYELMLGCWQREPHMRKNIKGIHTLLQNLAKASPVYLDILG

C[C@@H]1CN(c2cc(-c3n[nH]c4ccc(OC5(C)CC5)cc34)ncn2)C[C@H](C)O1 [MLi-2]
inactive: inhibition [1] 4.35% | residual activity [2, 17] 100% | residual activity [3, 17] 92% | residual activity [4, 17] 69% | residual activity [5, 17] 93% | residual activity [6, 17] 83% | residual activity [7, 17] 95% | residual activity [8, 17] 100% | residual activity [9, 17] 100% | residual activity [10, 17] 100% | residual activity [11, 17] 100% | residual activity [12, 17] 97% | residual activity [13, 17] 100% | residual activity [14, 17] 96% | residual activity [15, 17] 67% | residual activity [16, 17] 79%

C[C@@H]1CN(c2cc(-c3nn(C)c4ccc(OC5(C)CC5)cc34)ncn2)C[C@H](C)O1 [MLi-2-NC]
inactive: inhibition [1] -3.11% | residual activity [2, 18] 100% | residual activity [3, 18] 100% | residual activity [4, 18] 89% | residual activity [5, 18] 100% | residual activity [6, 18] 100% | residual activity [7, 18] 100% | residual activity [8, 18] 85% | residual activity [9, 18] 100% | residual activity [10, 18] 100% | residual activity [11, 18] 77% | residual activity [12, 18] 100% | residual activity [13, 18] 58% | residual activity [14, 18] 100% | residual activity [15, 18] 65% | residual activity [16, 18] 93%
